From ChEMBL document CHEMBL1145094, “A novel and selective 5-HT2 receptor agonist with ocular hypotensive activity: (S)-(+)-1-(2-aminopropyl)-8,9-dihydropyrano[3,2-e]indole” (J Med Chem, 2003)

How the values were obtained:
[1] = target: 5-hydroxytryptamine receptor 2A (Rattus norvegicus) (UniProt P14842); assay: In vitro efficacy against rat 5-hydroxytryptamine 2A receptor determined by using PI assay (Emax)
[2] = target: 5-hydroxytryptamine receptor 2B (Homo sapiens, UniProt P41595); assay: Inhibitory constant against cloned human 5-hydroxytryptamine 2B receptor using with [125I]- DOI radioligand
Sequence of 5-hydroxytryptamine receptor 2B (P41595 whole entry): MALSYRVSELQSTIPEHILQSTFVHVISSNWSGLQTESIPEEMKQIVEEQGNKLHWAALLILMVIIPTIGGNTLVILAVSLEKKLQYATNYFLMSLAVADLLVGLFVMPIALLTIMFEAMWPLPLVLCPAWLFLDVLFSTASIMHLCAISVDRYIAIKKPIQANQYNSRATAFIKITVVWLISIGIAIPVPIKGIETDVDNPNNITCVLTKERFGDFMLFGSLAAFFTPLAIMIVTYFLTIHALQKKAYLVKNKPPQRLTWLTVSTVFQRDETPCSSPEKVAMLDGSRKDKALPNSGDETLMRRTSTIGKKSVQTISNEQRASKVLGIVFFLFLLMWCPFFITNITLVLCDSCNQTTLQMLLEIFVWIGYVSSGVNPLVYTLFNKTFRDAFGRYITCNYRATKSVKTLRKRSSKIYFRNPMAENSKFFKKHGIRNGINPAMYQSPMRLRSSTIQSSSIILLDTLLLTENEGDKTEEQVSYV

[3] = target: T1, 5-hydroxytryptamine receptor 2A (Homo sapiens, UniProt P28223); assay: Inhibitory constant determined against cloned human 5-hydroxytryptamine 2A receptor using with [125I]- DOI radioligand
Target sequence in this assay (P28223 whole entry): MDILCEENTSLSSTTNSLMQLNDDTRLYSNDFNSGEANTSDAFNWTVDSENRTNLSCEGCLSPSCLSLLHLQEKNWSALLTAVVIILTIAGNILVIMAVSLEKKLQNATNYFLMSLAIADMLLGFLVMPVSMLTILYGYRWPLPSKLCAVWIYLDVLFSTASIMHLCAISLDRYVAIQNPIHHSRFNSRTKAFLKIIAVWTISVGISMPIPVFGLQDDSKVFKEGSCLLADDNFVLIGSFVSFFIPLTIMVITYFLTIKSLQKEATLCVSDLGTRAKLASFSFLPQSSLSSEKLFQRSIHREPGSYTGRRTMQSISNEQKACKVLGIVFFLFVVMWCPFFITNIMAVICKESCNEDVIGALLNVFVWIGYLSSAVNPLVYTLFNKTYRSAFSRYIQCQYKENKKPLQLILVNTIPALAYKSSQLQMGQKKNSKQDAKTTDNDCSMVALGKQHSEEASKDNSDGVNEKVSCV

[4] = target: T2, 5-hydroxytryptamine receptor 2C (Homo sapiens, UniProt P28335); assay: Inhibitory constant against cloned human 5-hydroxytryptamine 2C receptor using with [125I]- DOI radioligand
T2 sequence (P28335 whole entry): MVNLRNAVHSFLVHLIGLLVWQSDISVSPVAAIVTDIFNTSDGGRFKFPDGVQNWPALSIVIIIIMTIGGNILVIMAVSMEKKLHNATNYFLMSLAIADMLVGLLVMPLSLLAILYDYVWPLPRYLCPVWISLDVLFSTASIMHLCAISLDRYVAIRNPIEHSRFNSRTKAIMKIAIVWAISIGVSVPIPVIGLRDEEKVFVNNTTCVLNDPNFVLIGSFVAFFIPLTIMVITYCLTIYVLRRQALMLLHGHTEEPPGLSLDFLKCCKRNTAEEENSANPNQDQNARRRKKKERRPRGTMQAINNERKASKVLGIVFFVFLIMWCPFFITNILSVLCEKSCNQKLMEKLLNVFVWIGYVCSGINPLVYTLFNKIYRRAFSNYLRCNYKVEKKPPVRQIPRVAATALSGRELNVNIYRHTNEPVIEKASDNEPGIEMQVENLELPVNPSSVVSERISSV

[5] = target: T3, 5-hydroxytryptamine receptor 1A (Homo sapiens, UniProt P08908); assay: In vitro inhibitory concentration required against [3H]8-OH-DPAT binding to cloned human 5-hydroxytryptamine 1A receptor
T3 sequence (P08908 whole entry): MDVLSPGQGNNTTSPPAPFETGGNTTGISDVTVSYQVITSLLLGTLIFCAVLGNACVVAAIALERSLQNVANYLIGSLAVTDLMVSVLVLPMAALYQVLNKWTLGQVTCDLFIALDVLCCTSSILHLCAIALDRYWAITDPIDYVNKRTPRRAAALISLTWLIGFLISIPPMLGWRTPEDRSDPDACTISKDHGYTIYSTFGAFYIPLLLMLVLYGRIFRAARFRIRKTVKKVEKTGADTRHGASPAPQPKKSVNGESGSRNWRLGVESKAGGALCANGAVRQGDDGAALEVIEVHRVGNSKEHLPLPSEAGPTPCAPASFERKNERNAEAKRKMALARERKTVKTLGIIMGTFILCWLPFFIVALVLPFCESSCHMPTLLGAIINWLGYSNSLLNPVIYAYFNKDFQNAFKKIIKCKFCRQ

[6] = target: 5-hydroxytryptamine receptor 2A (Rattus norvegicus) (UniProt P14842); assay: In vitro efficacy against rat 5-hydroxytryptamine 2A receptor was determined by using CA+ assay (Emax)
[7] = target: T3, 5-hydroxytryptamine receptor 1A; assay: Tested for functional response on CHO cells expressing cloned human 5-hydroxytryptamine 1A receptor; assay type: cell-based
[8] = target: T1, 5-hydroxytryptamine receptor 2A; assay: Inhibitory constant against cloned human 5-hydroxytryptamine 2A receptor using with [125I]- DOI radioligand
[9] = target: T4, 5-hydroxytryptamine receptor 2A (Rattus norvegicus, UniProt P14842); assay: In vitro inhibitory constant against [125I]DOI binding to 5-hydroxytryptamine 2A receptor in rat cerebral cortex; assay type: tissue-based
T4 sequence (P14842 whole entry): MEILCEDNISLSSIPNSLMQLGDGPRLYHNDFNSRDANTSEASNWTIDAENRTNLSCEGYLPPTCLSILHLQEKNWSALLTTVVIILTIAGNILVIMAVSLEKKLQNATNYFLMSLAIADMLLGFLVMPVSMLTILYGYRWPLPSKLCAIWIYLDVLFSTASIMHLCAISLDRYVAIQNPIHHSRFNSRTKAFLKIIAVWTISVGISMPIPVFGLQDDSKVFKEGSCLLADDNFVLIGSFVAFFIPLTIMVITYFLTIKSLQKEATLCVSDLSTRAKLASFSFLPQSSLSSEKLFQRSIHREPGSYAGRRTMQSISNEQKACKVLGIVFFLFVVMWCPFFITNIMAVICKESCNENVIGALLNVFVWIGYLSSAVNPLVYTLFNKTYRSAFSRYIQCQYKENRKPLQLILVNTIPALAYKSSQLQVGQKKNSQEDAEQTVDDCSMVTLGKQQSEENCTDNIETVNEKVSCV

[10] = target: T4, 5-hydroxytryptamine receptor 2A; assay: In vitro relative agonist activity against 5-hydroxytryptamine 2A using PI assay in rat vascular smooth muscle cells; assay type: functional
Monkey [11] = assay: Tested for the ability to lower IOP in conscious cynomolgus monkeys with laser-induced ocular hypertension after 6 hr postdose of the compound; assay type: functional, Cercopithecidae, Eye
Monkey [12] = assay: Tested for the ability to lower IOP in conscious cynomolgus monkeys with laser-induced ocular hypertension after 1 hr postdose of the compound; assay type: functional, Cercopithecidae, Eye
[13] = target: T4, 5-hydroxytryptamine receptor 2A; assay: In vitro inhibition of [125I]DOI binding to 5-hydroxytryptamine 2A receptor in rat cerebral cortex; assay type: tissue-based
Monkey [14] = assay: Tested for the ability to lower IOP in conscious cynomolgus monkeys with laser-induced ocular hypertension after 3h postdose of the compound; assay type: functional, Cercopithecidae, Eye
[15] = target: T5, Alpha-1A adrenergic receptor (Rattus norvegicus, UniProt P43140); assay: Inhibitory constant against Alpha-1B adrenergic receptor using [3H]-7-MeO prazosin radioligand
T5 sequence (P43140 whole entry): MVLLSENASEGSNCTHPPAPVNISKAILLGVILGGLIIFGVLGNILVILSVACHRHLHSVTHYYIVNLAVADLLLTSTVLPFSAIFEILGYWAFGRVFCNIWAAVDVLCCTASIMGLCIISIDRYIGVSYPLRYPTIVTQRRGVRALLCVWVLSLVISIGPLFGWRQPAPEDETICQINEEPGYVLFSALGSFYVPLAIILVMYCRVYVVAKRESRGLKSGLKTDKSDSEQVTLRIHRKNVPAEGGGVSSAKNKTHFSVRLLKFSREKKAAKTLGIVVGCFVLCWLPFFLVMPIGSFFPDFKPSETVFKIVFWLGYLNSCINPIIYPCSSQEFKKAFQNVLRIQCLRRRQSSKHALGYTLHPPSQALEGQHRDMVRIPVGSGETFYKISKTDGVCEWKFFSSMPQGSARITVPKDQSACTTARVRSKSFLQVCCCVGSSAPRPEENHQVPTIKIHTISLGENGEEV

[16] = target: 5-hydroxytryptamine receptor 1B (Homo sapiens, UniProt P28222); assay: Inhibitory constant against 5-hydroxytryptamine 1B receptor using with [125I]- cyanopindolol radioligand
[17] = target: 5-hydroxytryptamine receptor 4 (Homo sapiens, UniProt Q13639); assay: Inhibitory constant against 5-hydroxytryptamine 4 receptor using [3H]GR-113808 radioligand
Sequence of 5-hydroxytryptamine receptor 4 (Q13639 whole entry): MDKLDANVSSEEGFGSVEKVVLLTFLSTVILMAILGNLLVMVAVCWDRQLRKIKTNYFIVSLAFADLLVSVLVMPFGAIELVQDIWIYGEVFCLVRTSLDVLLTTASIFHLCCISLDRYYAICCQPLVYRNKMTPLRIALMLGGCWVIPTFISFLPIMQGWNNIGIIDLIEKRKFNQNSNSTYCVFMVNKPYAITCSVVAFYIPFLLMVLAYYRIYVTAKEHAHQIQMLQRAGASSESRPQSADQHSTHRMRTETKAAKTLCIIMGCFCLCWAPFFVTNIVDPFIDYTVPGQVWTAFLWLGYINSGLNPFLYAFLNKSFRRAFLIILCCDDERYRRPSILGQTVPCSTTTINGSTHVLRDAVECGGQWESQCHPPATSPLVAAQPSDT

[18] = target: Alpha-2A adrenergic receptor (Homo sapiens, UniProt P08913); assay: (§1) Inhibitory concentration required against Alpha-2A adrenergic receptor using [3H]clonidine radioligand
Sequence of Alpha-2A adrenergic receptor (P08913 whole entry): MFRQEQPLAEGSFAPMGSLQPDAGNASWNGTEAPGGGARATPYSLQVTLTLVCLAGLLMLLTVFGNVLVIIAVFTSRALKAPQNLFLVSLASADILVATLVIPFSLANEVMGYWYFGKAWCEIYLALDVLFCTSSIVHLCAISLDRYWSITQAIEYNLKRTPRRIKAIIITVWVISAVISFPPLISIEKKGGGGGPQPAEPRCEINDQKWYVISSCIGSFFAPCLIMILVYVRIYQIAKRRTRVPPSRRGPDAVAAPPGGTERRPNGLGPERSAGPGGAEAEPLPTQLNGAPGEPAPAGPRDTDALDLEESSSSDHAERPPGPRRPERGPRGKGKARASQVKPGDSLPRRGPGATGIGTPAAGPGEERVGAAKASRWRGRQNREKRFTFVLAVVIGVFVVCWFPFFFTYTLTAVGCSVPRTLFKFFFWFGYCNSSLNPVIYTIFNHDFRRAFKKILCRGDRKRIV

[19] = target: T5, Alpha-1A adrenergic receptor; assay: Inhibitory constant against Alpha-1A adrenergic receptor using [3H]-7-MeO prazosin radioligand
[20] = target: T6, Alpha-2C adrenergic receptor (Homo sapiens, UniProt P18825); assay: Inhibitory concentration required against Alpha-2C adrenergic receptor using [3H]clonidine radioligand
T6 sequence (P18825 whole entry): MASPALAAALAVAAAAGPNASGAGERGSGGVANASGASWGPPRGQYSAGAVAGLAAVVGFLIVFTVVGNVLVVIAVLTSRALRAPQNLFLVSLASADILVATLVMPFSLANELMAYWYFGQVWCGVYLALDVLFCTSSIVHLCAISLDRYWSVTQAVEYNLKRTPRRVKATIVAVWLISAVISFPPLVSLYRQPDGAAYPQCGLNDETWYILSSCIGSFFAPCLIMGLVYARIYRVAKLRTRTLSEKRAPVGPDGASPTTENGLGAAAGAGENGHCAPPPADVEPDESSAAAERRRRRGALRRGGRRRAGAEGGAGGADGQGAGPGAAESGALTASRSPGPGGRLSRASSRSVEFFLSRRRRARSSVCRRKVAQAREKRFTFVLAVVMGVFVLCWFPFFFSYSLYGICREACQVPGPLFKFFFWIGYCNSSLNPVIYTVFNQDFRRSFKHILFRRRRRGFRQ

[21] = target: 5-hydroxytryptamine receptor 6 (Homo sapiens, UniProt P50406); assay: Inhibitory constant against human 5-hydroxytryptamine 6 receptor using [3H]LSD radioligand
Sequence of 5-hydroxytryptamine receptor 6 (P50406 whole entry): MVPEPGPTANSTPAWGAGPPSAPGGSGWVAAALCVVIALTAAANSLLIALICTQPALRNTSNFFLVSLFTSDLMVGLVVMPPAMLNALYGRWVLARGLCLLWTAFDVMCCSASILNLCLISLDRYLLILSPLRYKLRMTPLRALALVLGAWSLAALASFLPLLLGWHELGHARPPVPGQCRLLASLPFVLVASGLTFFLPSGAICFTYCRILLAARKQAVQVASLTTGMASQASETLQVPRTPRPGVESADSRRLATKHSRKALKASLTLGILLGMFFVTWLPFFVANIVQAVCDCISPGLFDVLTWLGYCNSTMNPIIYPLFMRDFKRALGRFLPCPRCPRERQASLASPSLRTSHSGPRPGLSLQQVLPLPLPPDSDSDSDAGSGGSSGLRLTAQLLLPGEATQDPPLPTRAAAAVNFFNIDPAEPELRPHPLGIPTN

[22] = target: Sodium-dependent noradrenaline transporter (Homo sapiens, UniProt P23975); assay: Inhibitory constant against norepinephrine transporter receptor using [3H]radioligand
Sequence of Sodium-dependent noradrenaline transporter (P23975 whole entry): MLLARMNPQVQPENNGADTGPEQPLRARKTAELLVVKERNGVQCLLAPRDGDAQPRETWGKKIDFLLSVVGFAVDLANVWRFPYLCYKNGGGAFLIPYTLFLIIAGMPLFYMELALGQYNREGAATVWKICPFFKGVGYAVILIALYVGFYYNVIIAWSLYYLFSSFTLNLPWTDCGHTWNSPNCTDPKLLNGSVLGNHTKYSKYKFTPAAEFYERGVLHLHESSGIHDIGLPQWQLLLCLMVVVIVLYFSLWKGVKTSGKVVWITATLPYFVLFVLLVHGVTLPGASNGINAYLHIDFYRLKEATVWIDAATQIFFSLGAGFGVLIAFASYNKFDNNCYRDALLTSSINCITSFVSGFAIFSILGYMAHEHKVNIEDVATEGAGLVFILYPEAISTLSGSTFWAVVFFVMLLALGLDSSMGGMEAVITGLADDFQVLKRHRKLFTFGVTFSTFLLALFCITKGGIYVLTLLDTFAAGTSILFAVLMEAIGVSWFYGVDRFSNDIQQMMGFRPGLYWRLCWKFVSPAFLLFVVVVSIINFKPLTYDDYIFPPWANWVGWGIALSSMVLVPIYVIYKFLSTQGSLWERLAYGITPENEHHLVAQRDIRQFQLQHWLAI

[23] = target: Alpha-2B adrenergic receptor (Rattus norvegicus, UniProt P19328); assay: Inhibitory constant against Alpha-2B adrenergic receptor using [3H]MK-912 radioligand
[24] = target: 5-hydroxytryptamine receptor 3A (Homo sapiens, UniProt P46098); assay: Inhibitory constant against 5-hydroxytryptamine 3 receptor using [3H]GR-65630 radioligand
Sequence of 5-hydroxytryptamine receptor 3A (P46098 whole entry): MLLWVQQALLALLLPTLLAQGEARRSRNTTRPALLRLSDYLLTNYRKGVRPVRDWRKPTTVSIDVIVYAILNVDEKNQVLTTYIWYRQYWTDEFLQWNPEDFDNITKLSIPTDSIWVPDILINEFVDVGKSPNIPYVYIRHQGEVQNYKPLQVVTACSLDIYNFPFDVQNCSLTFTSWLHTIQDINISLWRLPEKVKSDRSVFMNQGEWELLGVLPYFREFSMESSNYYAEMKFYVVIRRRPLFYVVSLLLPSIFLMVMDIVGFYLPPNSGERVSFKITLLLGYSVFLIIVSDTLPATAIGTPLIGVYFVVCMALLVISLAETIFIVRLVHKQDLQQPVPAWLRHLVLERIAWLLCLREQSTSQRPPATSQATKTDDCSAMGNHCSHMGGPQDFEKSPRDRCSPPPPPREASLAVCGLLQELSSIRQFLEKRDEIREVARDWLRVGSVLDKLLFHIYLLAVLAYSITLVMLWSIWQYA

[25] = target: 5-hydroxytryptamine receptor 5A (Homo sapiens, UniProt P47898); assay: Inhibitory constant against human 5-hydroxytryptamine 5A receptor using [3H]LSD radioligand
[26] = target: 5-hydroxytryptamine receptor 7 (Homo sapiens, UniProt P34969); assay: Inhibitory constant against human 5-hydroxytryptamine 7 receptor using [3H]LSD radioligand
[27] = target: Sodium-dependent serotonin transporter (Homo sapiens, UniProt P31645); assay: Inhibitory constant against human serotonin transporter using [3H]N-Me-citalopram radioligand
Sequence of Sodium-dependent serotonin transporter (P31645 whole entry): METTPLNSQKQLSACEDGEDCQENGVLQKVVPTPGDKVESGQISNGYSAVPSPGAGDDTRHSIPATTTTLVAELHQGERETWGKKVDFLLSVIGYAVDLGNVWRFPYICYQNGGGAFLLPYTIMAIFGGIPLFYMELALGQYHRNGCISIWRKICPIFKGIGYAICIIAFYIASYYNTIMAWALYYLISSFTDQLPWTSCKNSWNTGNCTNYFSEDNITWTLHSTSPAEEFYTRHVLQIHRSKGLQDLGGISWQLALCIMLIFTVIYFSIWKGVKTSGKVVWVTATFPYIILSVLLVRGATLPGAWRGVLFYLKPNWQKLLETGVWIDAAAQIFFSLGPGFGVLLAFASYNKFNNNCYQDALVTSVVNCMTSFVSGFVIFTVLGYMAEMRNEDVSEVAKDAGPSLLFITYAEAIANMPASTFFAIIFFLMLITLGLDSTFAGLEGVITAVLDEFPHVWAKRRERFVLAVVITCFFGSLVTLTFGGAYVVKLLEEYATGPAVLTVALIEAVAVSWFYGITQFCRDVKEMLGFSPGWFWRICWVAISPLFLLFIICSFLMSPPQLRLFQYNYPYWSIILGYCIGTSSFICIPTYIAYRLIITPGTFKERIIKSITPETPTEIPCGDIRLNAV

[28] = target: T5, Alpha-1A adrenergic receptor; assay: Inhibitory constant against alpha-1A receptor using [3H]-7-MeO prazosin radioligand
[29] = target: T6, Alpha-2C adrenergic receptor; assay: as §1
[30] = target: 5-hydroxytryptamine receptor 1D (Homo sapiens, UniProt P28221); assay: Inhibitory constant against human 5-hydroxytryptamine 1D receptor using [3H]5-CT radioligand
[31] = target: Alpha-1B adrenergic receptor (Rattus norvegicus, UniProt P15823); assay: Inhibitory constant against Alpha-1B adrenergic radioligand

Sequence of 5-hydroxytryptamine receptor 2A (Rattus norvegicus) (P14842 whole entry): as the sequence (P14842 whole entry) above

Structure (SMILES)	Efficacy [1]	Ki [2]	Ki [3]	Ki [4]	IC50 [5]	Efficacy [6]	EC50 [7]	Ki [8]	Ki [9]	EC50 [10]	Reduction (Monkey [11])	Reduction (Monkey [12])	IC50 [13]	Reduction (Monkey [14])	further results
CN(C)CCc1c[nH]c2ccc3c(c12)CCCO3	63%	26 nM	17 nM	16 nM	562 nM	47%									
CC(N)Cc1c[nH]c2ccc(O)cc12 (stereo not given)	98%	13 nM			19.6 nM	99%	378 nM	12 nM							
COc1cc(C[C@@H](C)N)c(OC)cc1I		18 nM		4 nM		33%			0.1 nM	27.7 nM	34.4%	11%	0.4 nM	25.3%	
Cn1cc(CCN)c2c3c(ccc21)OCCC3	96%		8.2 nM		8410 nM	70%			1.1 nM	213 nM			2.8 nM		
CC(N)Cc1c[nH]c2ccc3c(c12)CCCO3 (stereo not given)	81%	13 nM		5.5 nM	10900 nM	97%	> 10000 nM	3.6 nM	0.3 nM		<22.9%	<16%	0.7 nM	<28%	Ki [15]: > 30000 nM; Ki [16]: > 10000 nM; Ki [17]: 1800 nM; IC50 [18]: > 10000 nM; Ki [19]: > 30000 nM; IC50 [20]: > 30000 nM; Ki [21]: 400 nM; Ki [22]: > 30000 nM; Ki [23]: 10000 nM; Ki [24]: > 10000 nM; Ki [25]: 1900 nM; Ki [26]: 24000 nM; Ki [27]: > 10000 nM
CC(N)Cc1cn(C)c2ccc3c(c12)CCCO3 (stereo not given)	102%	11 nM		2.7 nM	12200 nM	79%	> 10000 nM	28 nM	0.2 nM	134 nM	<26.1%	<18.8%	0.5 nM	<28%	
COc1ccc2[nH]cc(CC(C)N)c2c1 (stereo not given)	107%	7.8 nM		8.3 nM	86.4 nM	96%	564 nM	4.6 nM	1.6 nM	285 nM	33.4%	21.6%	4.4 nM	35.2%	
NCCc1c[nH]c2ccc3c(c12)CCCO3	99%	14 nM	4.9 nM	6.3 nM	287 nM	99%			0.6 nM	181 nM			1.8 nM		
C[C@H](N)Cc1c[nH]c2ccc3c(c12)CCCO3	90%	5.3 nM		3.4 nM	> 10000 nM	103%		2 nM	0.2 nM	80.1 nM	<37%	<18.1%	0.5 nM	<33.2%	Ki [28]: > 10000 nM; Ki [16]: 3300 nM; Ki [17]: 1700 nM; IC50 [29]: 14000 nM; IC50 [18]: 19000 nM; Ki [21]: 2200 nM; Ki [22]: > 10000 nM; Ki [23]: > 10000 nM; Ki [24]: > 10000 nM; Ki [30]: > 10000 nM; Ki [25]: > 10000 nM; Ki [31]: > 10000 nM; Ki [27]: > 10000 nM
C[C@@H](N)Cc1c[nH]c2ccc3c(c12)CCCO3	83%	19 nM	3.6 nM	20 nM	8650 nM	71%			0.5 nM	292 nM	<32.5%	<12.7%	1.5 nM	<24.8%	
